Values quoted from earlier work, collected in US20070298008A1, “Method of bowel cleansing” (Braintree Laboratories, Inc., priority 2002, published 2007).
Like-named read-outs stand apart in the source and are kept apart here.

Tested on: intestines and rectum

## CC(=O)Oc1ccc(C(c2ccc(OC(C)=O)cc2)c2ccccn2)cc1 [Bisacodyl]
enema
  Time to produce a bowel movement: about 20 minutes
suppository
  Time to produce a bowel movement: about an hour
